Test results taken from US11401508B2, “Methods for isolating human cardiac ventricular progenitor cells” (Procella Therapeutics AB, priority 2016, dated 2022).

How the values were obtained:
[1] = molecular target: T1, Porcn (Homo sapiens, UniProt Q9H237); settings: read-out: IC50 (Porcn inhibitor); cited from earlier work
T1 sequence (Q9H237 1-461): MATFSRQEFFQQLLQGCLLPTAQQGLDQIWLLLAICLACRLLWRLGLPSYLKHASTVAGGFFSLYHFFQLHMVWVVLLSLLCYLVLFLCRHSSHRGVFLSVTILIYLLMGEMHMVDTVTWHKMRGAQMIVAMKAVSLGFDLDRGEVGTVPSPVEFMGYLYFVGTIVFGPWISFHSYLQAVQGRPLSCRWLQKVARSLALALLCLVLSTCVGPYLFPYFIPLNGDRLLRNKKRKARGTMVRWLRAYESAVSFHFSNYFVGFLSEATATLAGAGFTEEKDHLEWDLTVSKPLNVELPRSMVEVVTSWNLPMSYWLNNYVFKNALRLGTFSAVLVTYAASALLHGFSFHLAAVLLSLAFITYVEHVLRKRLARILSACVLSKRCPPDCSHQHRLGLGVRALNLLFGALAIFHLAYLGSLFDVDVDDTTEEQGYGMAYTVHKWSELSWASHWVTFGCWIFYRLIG

[2] = system: hPSCs; assay: Cardiac differentiation of hPSCs, lineage markers by flow cytometry and immunostaining; assay type: cell-based, human
Protocol: Cells were then cultured in mTeSR1, changed daily.
Data were collected on a FACSCaliber flow cytometer (Beckton Dickinson) and analyzed using FlowJo.

[3] = system: mature human muscle organ; assay: Force generation of muscle strips from HVP-derived human muscle organ on electric stimulation; settings: 5-month graft, p<0.05 compared to control
Description: Animals were sacrificed and the engrafted kidneys were removed for further analysis. The 5-month human graft was a hemisphere structure with the radius of 0.4 cm (diameter of 0.8 cm). […] In addition, muscle trips taken from our mature human muscle organ generated forces (0.36±0.04 mN) in response to electric stimulation and increased their force generation after treatment with a β-adrenergic agonist isoprenaline (0.51±0.02 mN, p<0.05 compared to control). Taken together, these studies indicate that the HVPs are capable of generating a fully functional, mature human ventricular muscle organ in vivo via a cell autonomous pathway, i.e., without the addition of other cells, genes, matrix proteins, or biomaterials.

[4] = molecular target: GSK-3, β (Homo sapiens, UniProt P49841); settings: read-out: IC50 GSK-3 β; cited from earlier work
[5] = molecular target: GSK-3 α (Homo sapiens, UniProt P49840); settings: cited from earlier work
Sequence of GSK-3 α (P49840 whole entry, species assumed): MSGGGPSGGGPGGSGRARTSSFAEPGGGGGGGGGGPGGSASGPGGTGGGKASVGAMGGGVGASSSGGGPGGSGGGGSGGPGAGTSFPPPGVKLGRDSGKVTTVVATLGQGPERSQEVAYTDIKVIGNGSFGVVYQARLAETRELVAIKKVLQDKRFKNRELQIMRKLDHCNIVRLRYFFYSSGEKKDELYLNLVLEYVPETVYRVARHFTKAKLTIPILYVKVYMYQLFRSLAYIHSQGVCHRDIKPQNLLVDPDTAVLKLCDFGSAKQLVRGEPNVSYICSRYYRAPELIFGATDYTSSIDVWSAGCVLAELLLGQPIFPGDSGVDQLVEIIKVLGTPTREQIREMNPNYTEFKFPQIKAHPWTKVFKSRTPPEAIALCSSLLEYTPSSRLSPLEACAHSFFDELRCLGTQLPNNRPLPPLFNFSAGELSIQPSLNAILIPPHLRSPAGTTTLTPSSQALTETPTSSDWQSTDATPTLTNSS

Sequence of GSK-3, β (P49841 whole entry, species assumed): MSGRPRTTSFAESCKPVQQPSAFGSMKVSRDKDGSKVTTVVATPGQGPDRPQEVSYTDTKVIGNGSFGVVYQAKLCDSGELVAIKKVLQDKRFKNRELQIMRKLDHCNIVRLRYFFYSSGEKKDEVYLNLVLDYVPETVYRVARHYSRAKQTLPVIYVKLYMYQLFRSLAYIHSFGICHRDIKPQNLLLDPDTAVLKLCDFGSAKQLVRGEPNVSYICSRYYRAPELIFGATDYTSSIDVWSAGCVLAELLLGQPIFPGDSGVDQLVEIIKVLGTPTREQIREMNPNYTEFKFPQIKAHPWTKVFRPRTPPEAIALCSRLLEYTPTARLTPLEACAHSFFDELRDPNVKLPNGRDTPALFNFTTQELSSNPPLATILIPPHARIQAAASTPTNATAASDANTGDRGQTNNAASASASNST

## Cc1ccc2nc(NC(=O)CSc3nc4c(c(=O)n3-c3ccccc3)SCC4)sc2c1 [IWP2]
[1]
  IC50: 27 nM

## Cc1cc(-c2ccc(CC(=O)Nc3ccc(-c4cccnc4)cc3)cc2)ccn1 [Wnt-059]
[2]; 48-hour treatment
  ventricular progenitor differentiation from mesoderm cells: enhanced ventricular progenitor differentiation
[1]
  IC50: 0.074 nM

## CC(C)NCC(O)c1ccc(O)c(O)c1 (centres unmarked) [isoprenaline]
[3]
  force generated by muscle strips after treatment with β-adrenergic agonist: 0.51±0.02 mN

## CHIR98014
[2]; after 24 hour treatment
  hPSCs expressing the mesoderm marker Brachyury: more than 99%
[2]; three days after treatment
  differentiated cells expressing Mesp1 (cardiac mesoderm): more than 95%
[4]
  IC50: 0.58 nM
[5]
  IC50: 0.65 nM
